Experimental data reported in BindingDB's records for doi:10.1016/j.bmcl.2004.05.021 (University of Alberta, 2004).

Target: Genome polyprotein 3C proteinase (Hepatitis A virus)
Test: Reversible inhibitory activity against Protease

Structure (SMILES) | IC50 [nM]
CC(=O)N[C@@H](CC(C)C)C(=O)N[C@@H](C)C(=O)N[C@@H](C)C(=O)N[C@@H](C[C@@H]1CCNC1=O)C(=O)Cn1[nH]c(=O)c2c(F)c(F)c(F)c(F)c2c1=O [(S)-2-Acetylamino-4-methyl-pentanoic acid ((S)-1-{1-[(S)-2-oxo-1-((1S,4S)-2-oxo-pyrrolidin-3-ylmethyl)-3-(5,6,7,8-tetrafluoro-1,4-dioxo-3,4-dihydro-1H-phthalazin-2-yl)-propylcarbamoyl]-ethylcarbamoyl}-ethyl)-amide] | 2000
CC(=O)N[C@@H](CC(C)C)C(=O)N[C@@H](C)C(=O)N[C@@H](C)C(=O)N[C@@H](CCC(=O)N(C)C)C(=O)Cn1[nH]c(=O)c2ccccc2c1=O [(S)-4-{(S)-2-[(S)-2-((S)-2-Acetylamino-4-methyl-pentanoylamino)-propionylamino]-propionylamino}-6-(1,4-dioxo-3,4-dihydro-1H-phthalazin-2-yl)-5-oxo-hexanoic acid dimethylamide] | 13000
CC(=O)N[C@@H](CC(C)C)C(=O)N[C@@H](C)C(=O)N[C@@H](C)C(=O)N[C@@H](C[C@@H]1CCNC1=O)C(=O)Cn1[nH]c(=O)c2c([N+](=O)[O-])cccc2c1=O [(S)-2-Acetylamino-4-methyl-pentanoic acid ((S)-1-{1-[(S)-3-(5-nitro-1,4-dioxo-3,4-dihydro-1H-phthalazin-2-yl)-2-oxo-1-((1S,4S)-2-oxo-pyrrolidin-3-ylmethyl)-propylcarbamoyl]-ethylcarbamoyl}-ethyl)-amide] | 1600
